# pIC50, pKi: −log10 of the molar value.
# What was measured:
# [1] = target: Glutamate receptor ionotropic, NMDA 2A (Homo sapiens, UniProt Q05586+Q12879); assay: Inhibition of human GluN2A receptor by FLIPR assay
# [2] = target: Glutamate receptor ionotropic, NMDA 2C (Homo sapiens, UniProt Q05586+Q14957); assay: Inhibition of human GluN2C receptor by FLIPR assay
# [3] = target: Glutamate receptor ionotropic, NMDA 2D (Homo sapiens, UniProt O15399+Q05586); assay: Inhibition of human GluN2D receptor by FLIPR assay
# [4] = target: Glutamate receptor ionotropic, NMDA 2B (Rattus norvegicus, UniProt Q00960); assay: Displacement of 3-(3H) 1-(azetidin-1-yl)-2-(6- (4-fluoro-3-methyl-phenyl)pyrrolo-[…] pyridin-1yl)ethanone from GluN2B receptor in rat cortical membrane assessed as inhibition constant incubated for 2 hrs under shaking condition by liquid scintillator counter analysis; type: cell membranes, Cortex
# [5] = target: Voltage-gated inwardly rectifying potassium channel KCNH2 (Homo sapiens, UniProt Q12809); assay: Displacement of [3H]dofetilide from human ERG expressed in HEK293 cells; type: toxicity, cell-based
# MDR1 (P-gp) = assay: Efflux ratio of apparent permeability from basolateral to apical side over apical to basolateral side in MDCK-MDR1 cells at 5 uM incubated for 60 mins by LC-MS/MS analysis; type: ADME, cell-based, Canis lupus familiaris; details: dog
# Cytochrome P450 1A2 = target: T1, Cytochrome P450 1A2 (Homo sapiens, UniProt P05177); assay: Inhibition of CYP1A2 in human liver microsomes incubated for 10 mins by LC-MS/MS analysis; type: ADME, Microsome
# T1 sequence (P05177 whole entry): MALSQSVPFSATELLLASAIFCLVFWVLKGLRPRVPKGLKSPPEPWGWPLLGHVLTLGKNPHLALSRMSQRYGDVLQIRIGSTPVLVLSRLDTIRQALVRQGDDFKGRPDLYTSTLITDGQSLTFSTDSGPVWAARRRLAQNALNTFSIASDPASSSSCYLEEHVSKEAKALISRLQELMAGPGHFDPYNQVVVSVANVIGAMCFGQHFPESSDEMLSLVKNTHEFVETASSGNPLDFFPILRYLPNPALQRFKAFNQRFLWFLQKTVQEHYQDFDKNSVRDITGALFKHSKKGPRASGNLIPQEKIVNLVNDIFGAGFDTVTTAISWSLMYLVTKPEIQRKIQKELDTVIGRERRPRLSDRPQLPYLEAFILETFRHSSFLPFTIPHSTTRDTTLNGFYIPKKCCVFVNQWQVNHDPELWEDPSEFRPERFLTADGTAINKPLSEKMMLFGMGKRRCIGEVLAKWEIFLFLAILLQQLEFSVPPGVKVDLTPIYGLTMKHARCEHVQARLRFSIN
# Cytochrome P450 2C19 = Cytochrome P450 2C19 (Homo sapiens, UniProt P33261); assay: Inhibition of CYP2C19 in human liver microsomes incubated for 10 mins by LC-MS/MS analysis; type: ADME, Microsome
# Cytochrome P450 2C8 = target: T2, Cytochrome P450 2C8 (Homo sapiens, UniProt P10632); assay: Inhibition of CYP2C8 in human liver microsomes incubated for 10 mins by LC-MS/MS analysis; type: ADME, Microsome
# T2 sequence (P10632 whole entry): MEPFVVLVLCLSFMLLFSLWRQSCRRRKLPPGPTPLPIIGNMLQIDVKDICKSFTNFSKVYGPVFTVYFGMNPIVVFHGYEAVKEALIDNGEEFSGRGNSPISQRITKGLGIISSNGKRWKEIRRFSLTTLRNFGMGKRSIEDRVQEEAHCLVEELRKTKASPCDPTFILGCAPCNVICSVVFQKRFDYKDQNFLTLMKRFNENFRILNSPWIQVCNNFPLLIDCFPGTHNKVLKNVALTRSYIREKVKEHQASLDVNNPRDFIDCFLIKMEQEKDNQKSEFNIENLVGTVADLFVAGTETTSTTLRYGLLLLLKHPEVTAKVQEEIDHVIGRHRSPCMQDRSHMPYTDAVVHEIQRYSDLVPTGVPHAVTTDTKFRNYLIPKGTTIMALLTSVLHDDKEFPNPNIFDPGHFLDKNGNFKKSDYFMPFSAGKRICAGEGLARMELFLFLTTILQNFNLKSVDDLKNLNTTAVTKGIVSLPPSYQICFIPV
# Cytochrome P450 2C9 = Cytochrome P450 2C9 (Homo sapiens, UniProt P11712); assay: Inhibition of CYP2C9 in human liver microsomes incubated for 10 mins by LC-MS/MS analysis; type: ADME, Microsome
# Cytochrome P450 2D6 = Cytochrome P450 2D6 (Homo sapiens, UniProt P10635); assay: Inhibition of CYP2D6 in human liver microsomes incubated for 10 mins by LC-MS/MS analysis; type: ADME, Microsome
# Cytochrome P450 3A4 = Cytochrome P450 3A4 (Homo sapiens, UniProt P08684); assay: Inhibition of CYP3A4 in human liver microsomes incubated for 10 mins by LC-MS/MS analysis; type: ADME, Microsome
# [6] = Volume of distribution at steady state in Sprague-Dawley rat at 5 mg/kg, po or 1 mg/kg, iv measured for 24 hrs by LC-MS/MS analysis; type: ADME, organism-based; details: in vivo
# [7] = Cmax in Sprague-Dawley rat at 5 mg/kg, po measured for 24 hrs by LC-MS/MS analysis; type: ADME, organism-based; design: time 24 hrs, dose 5 mg/kg, route po; details: in vivo
# [8] = Oral bioavailability in Sprague-Dawley rat at 5 mg/kg measured for 24 hrs by LC-MS/MS analysis; type: ADME, organism-based; details: in vivo
# [9] = Plasma protein binding in Sprague-Dawley rat assessed as free fraction; type: ADME, cell-free
# [10] = Drug concentration in Sprague-Dawley rat brain assessed as free fraction; type: ADME, tissue-based
# Brain [11] = assay: Ex vivo receptor occupancy at GluN2B receptor in Sprague-Dawley rat brain at 10 mg/kg, po measured after 0.5 hrs by 3 [3H] 1-(azetidin- 1-yl-2[6-(4-fluoro-3-methyl-pheny)pyrrolo[3,2-b]pyridin-1-yl]ethanon based autoradiography relative to control; type: functional
# Brain [12] = assay: Ex vivo receptor occupancy at GluN2B receptor in Sprague-Dawley rat brain at 10 mg/kg, po measured after 2 hrs by 3 [3H] 1-(azetidin- 1-yl-2[6-(4-fluoro-3-methyl-pheny)pyrrolo[3,2-b]pyridin-1-yl]ethanon based autoradiography relative to control; type: functional
# [13] = Drug concentration in Sprague-Dawley rat brain at 10 mg/kg, po measured after 0.5 hrs; type: ADME, organism-based; details: read-out: Ct
# [14] = Drug concentration in Sprague-Dawley rat brain at 10 mg/kg, po measured after 2 hrs; type: ADME, organism-based; details: read-out: Ct
# [15] = Drug concentration in Sprague-Dawley rat plasma at 10 mg/kg, po measured after 0.5 hrs; type: ADME, organism-based
# [16] = Drug concentration in Sprague-Dawley rat plasma at 10 mg/kg, po measured after 2 hrs; type: ADME, organism-based
# [17] = Unbound brain to plasma concentration ratio in Sprague-Dawley rat at 10 mg/kg, po measured after 0.5 hrs; type: ADME, organism-based; details: brain and plasma, read-out: K(p,uu,brain)
# [18] = Unbound brain to plasma concentration ratio in Sprague-Dawley rat at 10 mg/kg, po measured after 2 hrs; type: ADME, organism-based; details: brain and plasma, read-out: K(p,uu,brain)
# [19] = Metabolic stability in human liver microsomes assessed as extraction ratio; type: ADME, Microsome; details: read-out: ERH
# [20] = Metabolic stability in rat liver microsomes assessed as extraction ratio; type: ADME, Microsome; details: read-out: ERH
# [21] = Thermodynamic solubility in aqueous phosphate buffer at pH 2; type: physicochemical; details: read-out: Therm_solubility
# [22] = Thermodynamic solubility in aqueous phosphate buffer at pH 7; type: physicochemical; details: read-out: Therm_solubility
# Brain [23] = assay: Ex vivo receptor occupancy at GluN2B receptor in Sprague-Dawley rat brain at 10 mg/kg, po measured after 6 hrs by 3 [3H] 1-(azetidin- 1-yl-2[6-(4-fluoro-3-methyl-pheny)pyrrolo[3,2-b]pyridin-1-yl]ethanon based autoradiography relative to control; type: functional
# [24] = Drug concentration in Sprague-Dawley rat plasma at 10 mg/kg, po measured after 6 hrs; type: ADME, organism-based
# Hippocampus = assay: Ex vivo receptor occupancy at GluN2B receptor in Sprague-Dawley rat hippocampus administered orally and measured after 0.5 hrs by 3-[3H] 1-(azetidin- 1-yl-2[6-(4-fluoro-3-methyl-pheny)pyrrolo[3,2-b]pyridin-1-yl]ethanon based autoradiography; type: functional; details: route po
# Sequence of Glutamate receptor ionotropic, NMDA 2D (O15399 whole entry, one chain of several): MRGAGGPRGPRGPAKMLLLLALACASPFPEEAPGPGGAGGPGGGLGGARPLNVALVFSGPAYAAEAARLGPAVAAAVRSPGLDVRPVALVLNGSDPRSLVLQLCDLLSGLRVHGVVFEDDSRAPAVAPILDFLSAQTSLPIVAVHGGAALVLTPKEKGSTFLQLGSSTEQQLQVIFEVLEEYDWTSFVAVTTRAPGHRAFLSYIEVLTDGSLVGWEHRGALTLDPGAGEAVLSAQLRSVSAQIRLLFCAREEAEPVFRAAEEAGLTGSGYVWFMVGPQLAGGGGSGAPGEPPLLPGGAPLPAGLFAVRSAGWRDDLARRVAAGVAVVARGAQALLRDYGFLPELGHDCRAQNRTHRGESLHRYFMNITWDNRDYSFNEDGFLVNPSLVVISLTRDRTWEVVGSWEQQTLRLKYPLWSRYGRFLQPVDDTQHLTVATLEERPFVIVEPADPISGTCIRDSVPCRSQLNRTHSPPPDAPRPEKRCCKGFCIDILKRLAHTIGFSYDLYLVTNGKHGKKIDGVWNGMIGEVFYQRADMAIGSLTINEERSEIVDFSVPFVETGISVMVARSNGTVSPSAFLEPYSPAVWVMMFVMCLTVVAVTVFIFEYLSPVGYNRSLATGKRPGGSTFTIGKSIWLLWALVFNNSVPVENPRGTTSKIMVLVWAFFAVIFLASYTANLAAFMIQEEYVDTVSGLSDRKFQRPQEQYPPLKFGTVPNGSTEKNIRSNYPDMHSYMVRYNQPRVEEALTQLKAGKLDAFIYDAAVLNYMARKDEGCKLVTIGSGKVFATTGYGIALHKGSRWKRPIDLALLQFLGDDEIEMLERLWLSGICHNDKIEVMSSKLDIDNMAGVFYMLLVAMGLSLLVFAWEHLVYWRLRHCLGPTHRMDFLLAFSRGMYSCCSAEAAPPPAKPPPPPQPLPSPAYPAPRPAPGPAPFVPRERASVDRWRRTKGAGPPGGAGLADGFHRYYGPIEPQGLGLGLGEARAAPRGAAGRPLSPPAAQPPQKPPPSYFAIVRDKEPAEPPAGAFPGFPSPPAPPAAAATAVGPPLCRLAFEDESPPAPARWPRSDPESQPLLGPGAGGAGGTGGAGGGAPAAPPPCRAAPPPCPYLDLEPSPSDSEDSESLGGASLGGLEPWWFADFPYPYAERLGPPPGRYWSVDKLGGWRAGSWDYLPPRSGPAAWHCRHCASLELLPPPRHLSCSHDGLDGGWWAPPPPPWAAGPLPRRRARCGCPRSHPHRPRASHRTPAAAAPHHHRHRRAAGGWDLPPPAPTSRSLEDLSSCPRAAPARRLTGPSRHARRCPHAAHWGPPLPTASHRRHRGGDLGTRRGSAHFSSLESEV
# Sequence of Glutamate receptor ionotropic, NMDA 2A (Q12879 whole entry, one chain of several): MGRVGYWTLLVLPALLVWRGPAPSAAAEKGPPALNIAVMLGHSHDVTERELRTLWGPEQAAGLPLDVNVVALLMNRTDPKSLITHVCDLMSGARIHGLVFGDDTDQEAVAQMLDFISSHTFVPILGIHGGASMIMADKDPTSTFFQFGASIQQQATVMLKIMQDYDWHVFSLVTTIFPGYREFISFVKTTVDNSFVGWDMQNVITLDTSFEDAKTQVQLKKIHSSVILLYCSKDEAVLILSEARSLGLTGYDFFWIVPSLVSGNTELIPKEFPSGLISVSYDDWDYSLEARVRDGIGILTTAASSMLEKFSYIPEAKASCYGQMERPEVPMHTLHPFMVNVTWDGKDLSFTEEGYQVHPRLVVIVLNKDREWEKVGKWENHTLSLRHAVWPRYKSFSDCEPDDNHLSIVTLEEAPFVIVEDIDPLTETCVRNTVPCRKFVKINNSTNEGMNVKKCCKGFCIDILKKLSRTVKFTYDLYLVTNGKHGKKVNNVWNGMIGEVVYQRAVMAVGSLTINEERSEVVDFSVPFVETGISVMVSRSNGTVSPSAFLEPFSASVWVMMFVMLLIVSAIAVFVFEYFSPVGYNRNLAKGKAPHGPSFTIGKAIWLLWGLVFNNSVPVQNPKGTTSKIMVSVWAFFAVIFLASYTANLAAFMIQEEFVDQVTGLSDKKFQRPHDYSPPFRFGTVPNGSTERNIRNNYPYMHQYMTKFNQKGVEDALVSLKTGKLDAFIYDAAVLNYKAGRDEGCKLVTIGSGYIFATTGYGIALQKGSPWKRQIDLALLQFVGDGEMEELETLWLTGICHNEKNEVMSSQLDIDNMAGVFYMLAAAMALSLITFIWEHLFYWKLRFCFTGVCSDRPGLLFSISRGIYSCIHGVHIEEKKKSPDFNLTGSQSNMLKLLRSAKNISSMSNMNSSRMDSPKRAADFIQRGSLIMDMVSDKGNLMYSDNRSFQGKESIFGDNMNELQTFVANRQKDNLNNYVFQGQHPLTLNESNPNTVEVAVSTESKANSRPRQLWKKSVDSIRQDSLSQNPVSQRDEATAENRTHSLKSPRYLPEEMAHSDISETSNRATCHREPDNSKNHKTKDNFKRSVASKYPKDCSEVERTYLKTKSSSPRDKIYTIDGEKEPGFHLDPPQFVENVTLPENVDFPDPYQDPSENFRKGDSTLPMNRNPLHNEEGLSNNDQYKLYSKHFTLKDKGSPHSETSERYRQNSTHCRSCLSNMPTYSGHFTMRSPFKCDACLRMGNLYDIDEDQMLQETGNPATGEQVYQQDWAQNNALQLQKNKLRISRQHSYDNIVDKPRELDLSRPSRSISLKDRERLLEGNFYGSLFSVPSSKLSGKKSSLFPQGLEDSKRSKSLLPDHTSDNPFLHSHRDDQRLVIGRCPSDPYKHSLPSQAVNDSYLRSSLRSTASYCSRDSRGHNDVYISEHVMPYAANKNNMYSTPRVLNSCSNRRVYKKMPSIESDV
# Sequence of Glutamate receptor ionotropic, NMDA 2B (Q00960 whole entry): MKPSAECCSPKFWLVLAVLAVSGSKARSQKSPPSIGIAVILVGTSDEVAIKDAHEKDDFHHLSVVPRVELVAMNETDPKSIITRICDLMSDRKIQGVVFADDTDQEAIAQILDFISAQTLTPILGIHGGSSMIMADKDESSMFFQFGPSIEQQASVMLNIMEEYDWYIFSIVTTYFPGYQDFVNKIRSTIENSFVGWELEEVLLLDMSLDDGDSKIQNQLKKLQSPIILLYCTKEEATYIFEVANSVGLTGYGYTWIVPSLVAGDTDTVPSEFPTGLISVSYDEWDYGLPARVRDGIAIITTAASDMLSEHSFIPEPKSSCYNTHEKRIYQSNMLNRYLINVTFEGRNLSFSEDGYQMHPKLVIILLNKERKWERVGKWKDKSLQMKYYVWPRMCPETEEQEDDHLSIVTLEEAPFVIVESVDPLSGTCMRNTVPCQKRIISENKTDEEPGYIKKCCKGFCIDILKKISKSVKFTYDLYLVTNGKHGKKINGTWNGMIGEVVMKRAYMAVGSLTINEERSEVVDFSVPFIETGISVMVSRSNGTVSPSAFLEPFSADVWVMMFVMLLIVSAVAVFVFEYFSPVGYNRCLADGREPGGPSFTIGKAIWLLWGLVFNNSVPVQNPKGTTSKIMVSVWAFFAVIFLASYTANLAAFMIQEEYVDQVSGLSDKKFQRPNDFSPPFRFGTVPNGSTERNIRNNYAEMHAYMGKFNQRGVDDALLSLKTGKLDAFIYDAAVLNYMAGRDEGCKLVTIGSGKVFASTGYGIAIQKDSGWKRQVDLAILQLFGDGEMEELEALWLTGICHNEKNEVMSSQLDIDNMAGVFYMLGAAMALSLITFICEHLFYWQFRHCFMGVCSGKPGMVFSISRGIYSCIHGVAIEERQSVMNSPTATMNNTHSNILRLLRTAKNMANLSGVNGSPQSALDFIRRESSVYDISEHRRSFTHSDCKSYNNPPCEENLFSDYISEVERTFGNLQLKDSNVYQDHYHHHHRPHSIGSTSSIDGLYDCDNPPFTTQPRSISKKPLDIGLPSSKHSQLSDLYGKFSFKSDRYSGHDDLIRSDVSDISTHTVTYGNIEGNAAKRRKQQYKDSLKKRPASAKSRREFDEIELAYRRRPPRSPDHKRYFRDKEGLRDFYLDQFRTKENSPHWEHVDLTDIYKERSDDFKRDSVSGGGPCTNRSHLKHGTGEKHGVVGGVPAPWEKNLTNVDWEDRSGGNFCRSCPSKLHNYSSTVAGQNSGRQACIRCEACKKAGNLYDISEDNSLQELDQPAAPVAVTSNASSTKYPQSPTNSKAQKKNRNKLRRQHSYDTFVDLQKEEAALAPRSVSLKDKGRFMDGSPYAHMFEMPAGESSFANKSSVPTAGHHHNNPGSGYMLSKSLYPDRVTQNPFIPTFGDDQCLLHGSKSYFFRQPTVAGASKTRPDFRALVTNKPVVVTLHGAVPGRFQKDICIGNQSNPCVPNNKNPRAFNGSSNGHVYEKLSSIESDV
# Sequence of Cytochrome P450 3A4 (P08684 whole entry): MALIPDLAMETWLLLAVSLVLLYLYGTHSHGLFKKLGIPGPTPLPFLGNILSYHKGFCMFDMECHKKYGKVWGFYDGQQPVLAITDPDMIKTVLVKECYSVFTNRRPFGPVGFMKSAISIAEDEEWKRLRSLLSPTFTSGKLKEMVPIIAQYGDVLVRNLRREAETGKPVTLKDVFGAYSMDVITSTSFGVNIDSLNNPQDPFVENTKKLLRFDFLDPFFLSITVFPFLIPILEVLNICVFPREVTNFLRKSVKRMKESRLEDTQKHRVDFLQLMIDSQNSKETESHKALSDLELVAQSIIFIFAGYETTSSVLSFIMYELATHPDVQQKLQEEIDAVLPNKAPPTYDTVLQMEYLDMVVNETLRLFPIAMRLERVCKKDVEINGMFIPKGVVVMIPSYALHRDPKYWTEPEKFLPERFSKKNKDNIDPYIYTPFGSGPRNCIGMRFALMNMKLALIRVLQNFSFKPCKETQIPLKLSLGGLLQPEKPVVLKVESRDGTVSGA
smiles,measurement,setting,value
COCc1ccnc(OCc2cn(-c3ccc(F)c(OC(F)F)c3)nn2)n1,pIC50,[1],< 5.00
same,pIC50,[2],< 5.00
same,pIC50,[3],< 5.00
same,pKi,[4],7.49
same,pIC50,[5],< 5.00
same,"efflux ratio at 1 h, 5 µM",MDR1 (P-gp),1.1
same,pIC50,Cytochrome P450 1A2,< 5.00
same,pIC50,Cytochrome P450 2C19,< 5.00
same,pIC50,Cytochrome P450 2C8,< 5.00
same,pIC50,Cytochrome P450 2C9,< 5.00
same,pIC50,Cytochrome P450 2D6,< 5.00
same,pIC50,Cytochrome P450 3A4,< 5.00
same,Vdss,[6],0.4 L/kg
same,Cmax,[7],1630 ng/mL
same,bioavailability,[8],42%
same,fraction unbound,[9],0.0236
same,fraction unbound,[10],0.0882
same,Occ,Brain [11],77%
same,Occ,Brain [12],54%
same,concentration at 0.5 h,[13],340 ng/g
same,concentration at 2 h,[14],47 ng/g
same,concentration at 0.5 h,[15],1980 ng/mL
same,concentration at 2 h,[16],235 ng/mL
same,Kp uu at 0.5 h,[17],0.65
same,Kp uu at 2 h,[18],0.76
same,hepatic extraction ratio,[19],0.47
same,hepatic extraction ratio,[20],0.6
same,solubility thermodynamic,[21],280 µM
same,solubility thermodynamic,[22],260 µM
same,Occ,Brain [23],8%
same,concentration at 6 h,[24],6.7 ng/mL
same,ED50,Hippocampus,1.7 mg/kg

# — ChEMBL document CHEMBL5316339, “Discovery of a Series of Substituted 1H-((1,2,3-Triazol-4-yl)methoxy)pyrimidines as Brain Penetrants and Potent GluN2B-Selective Negative Allosteric Modulators” (J Med Chem, 2023)
